Data: US20080009418A1, “Selective Inhibitors” (Alchemia LTD., priority 2004, published 2008)

How the values were obtained:
[1] = biological target: T1, Human neuropeptide Y (NPY-Y1) (Homo sapiens, UniProt P25929); assay: Radioligand binding, human neuropeptide Y NPY-Y1 membranes, FlashPlate, [125I]-PYY; details: compound at 10 μM; for A9 radioligand binding inhibition: human NPY-Y1 membranes
T1 construct: purchased Perkin Elmer Biosignal
T1 sequence (P25929 1-384): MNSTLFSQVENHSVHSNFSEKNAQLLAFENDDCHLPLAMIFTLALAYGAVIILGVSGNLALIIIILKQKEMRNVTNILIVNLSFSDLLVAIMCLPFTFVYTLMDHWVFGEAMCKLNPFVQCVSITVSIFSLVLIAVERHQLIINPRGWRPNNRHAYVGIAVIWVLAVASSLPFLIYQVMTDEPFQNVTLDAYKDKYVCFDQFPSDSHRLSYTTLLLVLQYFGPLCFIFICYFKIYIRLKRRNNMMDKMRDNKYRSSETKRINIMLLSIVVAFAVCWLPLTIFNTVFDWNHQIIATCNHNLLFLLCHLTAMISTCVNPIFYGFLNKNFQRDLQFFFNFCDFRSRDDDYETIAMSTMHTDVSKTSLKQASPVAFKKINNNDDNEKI
Method in brief: (§1)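 Cloned human receptor membranes were coated onto FlashPlate wells and incubated with radioligand and compound (added from a 0.5 mM DMSO daughter plate) for 1 hour at room temperature in the dark. Scintillation counting gave percent inhibition, with DMSO defining total and reference ligand defining non-specific binding.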

[2] = biological target: T2, Human melanocortin (MC5) (Homo sapiens, UniProt P33032); assay: Radioligand binding, human melanocortin MC5 membranes, FlashPlate, [125I]-NDP-αMSH; details: compound at 10 μM; for A5 radioligand binding inhibition: human melanocortin MC5 membranes
T2 construct: purchased Perkin Elmer Biosignal
T2 sequence (P33032 whole entry): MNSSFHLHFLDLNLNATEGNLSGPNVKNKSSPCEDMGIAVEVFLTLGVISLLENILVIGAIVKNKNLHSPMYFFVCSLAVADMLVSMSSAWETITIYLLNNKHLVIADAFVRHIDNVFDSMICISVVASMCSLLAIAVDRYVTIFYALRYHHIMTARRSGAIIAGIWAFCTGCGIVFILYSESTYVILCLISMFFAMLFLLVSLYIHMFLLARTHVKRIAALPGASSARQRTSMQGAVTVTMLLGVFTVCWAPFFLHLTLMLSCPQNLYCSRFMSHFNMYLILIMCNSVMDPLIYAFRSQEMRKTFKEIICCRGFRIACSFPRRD
Method in brief: as §1

[3] = biological target: T3, Mouse urotensin (mUR2) (Mus musculus, UniProt Q8VIH9); assay: Radioligand binding, mouse urotensin mUR2 membranes, FlashPlate, [125I]-Urotensin II; details: compound at 10 μM; for A11 radioligand binding inhibition: mouse urotensin mUR2 membranes
T3 construct: purchased Perkin Elmer Biosignal
T3 sequence (Q8VIH9 1-385): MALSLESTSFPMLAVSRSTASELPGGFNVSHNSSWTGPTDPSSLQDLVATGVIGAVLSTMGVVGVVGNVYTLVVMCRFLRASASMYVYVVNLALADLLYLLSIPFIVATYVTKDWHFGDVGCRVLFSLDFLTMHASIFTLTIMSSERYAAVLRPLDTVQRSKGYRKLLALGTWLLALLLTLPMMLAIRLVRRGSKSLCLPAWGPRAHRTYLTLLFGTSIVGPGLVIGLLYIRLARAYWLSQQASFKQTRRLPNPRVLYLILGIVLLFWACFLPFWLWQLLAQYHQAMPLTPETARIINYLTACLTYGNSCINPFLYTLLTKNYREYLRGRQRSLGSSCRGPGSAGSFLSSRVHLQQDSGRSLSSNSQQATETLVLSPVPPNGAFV
Method in brief: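 Cloned mouse urotensin (mUR2) receptor membranes from Perkin Elmer Biosignal were immobilized in FlashPlate microplates using a proprietary coating. Each well got 19.5 μl buffer, then 0.5 μl of DMSO, reference ligand, or compound. Adding 5 μl of [125I]-Urotensin II, diluted to 5× final concentration in binding buffer, started binding. Plates were sealed with TopSeal-A and incubated 1 hour at room temperature in the dark. Wells were counted for 30 seconds each on a TopCount after a 60-second delay, and percentage inhibition was calculated.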

[4] = biological target: T4, Human δ-opioid (DOP) (Homo sapiens, UniProt P41143); assay: Radioligand binding, human δ-opioid (DOP) membranes, FlashPlate, [3H]-Bremazocine; details: compound at 10 μM; for A1 radioligand binding inhibition: human δ-opioid (DOP) membranes
T4 construct: purchased Perkin Elmer Biosignal
T4 sequence (P41143 whole entry): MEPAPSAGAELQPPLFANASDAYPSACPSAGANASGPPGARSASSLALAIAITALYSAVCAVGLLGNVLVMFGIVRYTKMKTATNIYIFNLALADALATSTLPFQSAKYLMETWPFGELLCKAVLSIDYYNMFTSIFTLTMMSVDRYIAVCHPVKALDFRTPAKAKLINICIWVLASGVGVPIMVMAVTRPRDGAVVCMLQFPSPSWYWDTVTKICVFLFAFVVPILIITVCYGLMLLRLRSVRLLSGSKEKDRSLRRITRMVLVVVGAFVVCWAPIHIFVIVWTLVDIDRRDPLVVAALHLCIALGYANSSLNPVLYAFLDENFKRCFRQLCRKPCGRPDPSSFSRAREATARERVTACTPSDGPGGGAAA
Method in brief: as §1

[5] = biological target: T5, Human neurokinin (NK1) (Homo sapiens, UniProt P25103); assay: Radioligand binding, human neurokinin NK1 membranes, filtration, [125I]-Substance P; details: compound at 10 μM; for A8 radioligand binding inhibition: human neurokinin NK1 membranes
T5 construct: purchased Perkin Elmer Biosignal
T5 sequence (P25103 whole entry): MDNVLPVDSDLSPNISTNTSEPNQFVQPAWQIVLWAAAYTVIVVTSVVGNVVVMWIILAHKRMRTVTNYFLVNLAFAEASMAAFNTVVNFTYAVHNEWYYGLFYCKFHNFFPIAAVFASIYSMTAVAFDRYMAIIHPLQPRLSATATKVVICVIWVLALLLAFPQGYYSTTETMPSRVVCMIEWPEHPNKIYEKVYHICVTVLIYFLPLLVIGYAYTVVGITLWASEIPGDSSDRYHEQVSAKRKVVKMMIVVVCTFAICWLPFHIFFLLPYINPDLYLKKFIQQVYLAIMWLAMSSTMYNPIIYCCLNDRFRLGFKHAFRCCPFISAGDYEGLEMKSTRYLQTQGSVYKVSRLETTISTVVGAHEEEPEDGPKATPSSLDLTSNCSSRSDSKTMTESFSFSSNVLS
Method in brief: (§2)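 Percent inhibition of radioligand binding measured on recombinant human membranes: NK1 with [125I]-Substance P, KOP with [3H]-Diprenorphine. Incubation 1 h at room temperature, then harvest onto 0.3% PEI-soaked filters, cold Tris-HCl pH 7.4 washes and scintillation counting; non-specific binding from reference ligand wells.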

[6] = biological target: T6, Human μ-opioid (MOP) (Homo sapiens, UniProt P35372); assay: Radioligand binding, human μ-opioid (MOP) membranes, FlashPlate, [3H]-Naloxone; details: compound at 10 μM; for A7 radioligand binding inhibition: human μ-opioid (MOP) membranes
T6 construct: purchased Perkin Elmer Biosignal
T6 sequence (P35372 whole entry): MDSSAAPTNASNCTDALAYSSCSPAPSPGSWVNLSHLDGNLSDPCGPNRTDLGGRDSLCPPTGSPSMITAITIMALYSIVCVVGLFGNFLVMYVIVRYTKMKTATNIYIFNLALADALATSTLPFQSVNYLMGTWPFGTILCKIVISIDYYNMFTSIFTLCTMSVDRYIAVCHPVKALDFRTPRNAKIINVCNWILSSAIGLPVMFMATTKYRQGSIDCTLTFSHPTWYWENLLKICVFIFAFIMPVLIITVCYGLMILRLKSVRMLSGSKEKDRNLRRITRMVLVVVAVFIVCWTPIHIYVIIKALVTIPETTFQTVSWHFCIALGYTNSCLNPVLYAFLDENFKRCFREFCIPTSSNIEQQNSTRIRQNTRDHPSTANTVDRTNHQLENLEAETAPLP
Method in brief: as §1

[7] = biological target: T7, Human opioid (ORL1) (Homo sapiens, UniProt P41146); assay: Radioligand binding, human opioid ORL1 membranes, FlashPlate, [125I]-Nociceptin; details: compound at 10 μM; for A10 radioligand binding inhibition: human ORL1 membranes
T7 construct: purchased Perkin Elmer Biosignal
T7 sequence (P41146 whole entry): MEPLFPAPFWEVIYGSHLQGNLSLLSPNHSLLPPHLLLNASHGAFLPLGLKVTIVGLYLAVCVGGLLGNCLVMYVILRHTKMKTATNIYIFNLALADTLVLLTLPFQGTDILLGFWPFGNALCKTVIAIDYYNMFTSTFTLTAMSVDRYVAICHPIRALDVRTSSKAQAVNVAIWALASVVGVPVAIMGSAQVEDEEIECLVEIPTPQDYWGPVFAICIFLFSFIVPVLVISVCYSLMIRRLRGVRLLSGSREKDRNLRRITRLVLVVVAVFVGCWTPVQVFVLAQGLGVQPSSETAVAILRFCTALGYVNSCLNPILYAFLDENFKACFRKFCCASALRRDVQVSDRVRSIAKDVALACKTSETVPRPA
Method in brief: as §1

[8] = biological target: T8, Human Melanocortin (MC4) (Homo sapiens, UniProt P32245); assay: Radioligand binding, human melanocortin MC4 membranes, FlashPlate, [125I]-NDP-αMSH; details: compound at 10 μM; for A4 radioligand binding inhibition: human melanocortin MC4 membranes
T8 construct: purchased Perkin Elmer Biosignal
T8 sequence (P32245 whole entry): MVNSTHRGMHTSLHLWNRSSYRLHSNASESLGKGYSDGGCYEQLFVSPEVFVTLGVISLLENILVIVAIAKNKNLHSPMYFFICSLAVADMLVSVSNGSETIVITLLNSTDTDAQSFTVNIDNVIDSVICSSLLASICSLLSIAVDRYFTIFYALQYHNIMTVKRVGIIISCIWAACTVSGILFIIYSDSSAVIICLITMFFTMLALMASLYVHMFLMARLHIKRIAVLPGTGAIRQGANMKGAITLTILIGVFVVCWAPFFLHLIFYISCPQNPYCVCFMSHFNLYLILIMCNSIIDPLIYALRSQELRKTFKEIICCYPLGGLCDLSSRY
Method in brief: as §1

[9] = biological target: T9, Human κ-Opioid (KOP) (Homo sapiens, UniProt P41145); assay: Radioligand binding, human κ-opioid (KOP) membranes, filtration, [3H]-Diprenorphine; details: compound at 10 μM; for A2 radioligand binding inhibition: human κ-opioid (KOP) membranes
T9 construct: purchased Perkin Elmer Biosignal
T9 sequence (P41145 whole entry): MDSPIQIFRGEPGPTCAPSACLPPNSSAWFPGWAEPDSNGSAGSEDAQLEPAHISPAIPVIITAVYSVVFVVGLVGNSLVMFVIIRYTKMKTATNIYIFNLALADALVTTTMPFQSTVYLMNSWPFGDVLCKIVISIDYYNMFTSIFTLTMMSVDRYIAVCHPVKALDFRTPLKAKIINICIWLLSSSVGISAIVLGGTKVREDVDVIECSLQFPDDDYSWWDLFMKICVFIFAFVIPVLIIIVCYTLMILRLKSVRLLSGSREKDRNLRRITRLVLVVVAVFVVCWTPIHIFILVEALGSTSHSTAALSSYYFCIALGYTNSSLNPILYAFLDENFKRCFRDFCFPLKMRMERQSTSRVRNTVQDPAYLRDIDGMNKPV
Method in brief: as §2

[10] = biological target: T10, Human Melanocortin (MC3) (Homo sapiens, UniProt P41968); assay: Radioligand binding, human melanocortin MC3 membranes, FlashPlate, [125I]-NDP-αMSH; details: compound at 10 μM; for A3 radioligand binding inhibition: human melanocortin MC3 membranes
T10 construct: purchased Perkin Elmer Biosignal
T10 sequence (P41968 whole entry): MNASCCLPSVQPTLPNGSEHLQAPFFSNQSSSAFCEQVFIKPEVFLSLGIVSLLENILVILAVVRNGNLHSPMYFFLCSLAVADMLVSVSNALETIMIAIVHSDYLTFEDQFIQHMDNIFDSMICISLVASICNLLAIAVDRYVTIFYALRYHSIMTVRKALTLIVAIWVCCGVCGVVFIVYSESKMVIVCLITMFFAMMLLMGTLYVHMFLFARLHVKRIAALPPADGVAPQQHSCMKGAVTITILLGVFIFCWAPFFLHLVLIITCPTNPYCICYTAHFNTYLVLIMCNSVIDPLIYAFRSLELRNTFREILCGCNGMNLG
Method in brief: as §1

[11] = biological target: T11, Human melanin-concentrating hormone (MCH1) (Homo sapiens, UniProt Q99705); assay: Radioligand binding, human melanin-concentrating hormone MCH1 membranes, FlashPlate, [125I]-S36057; details: compound at 10 μM; for A6 radioligand binding inhibition: human MCH1 membranes
T11 construct: purchased Perkin Elmer Biosignal
T11 sequence (Q99705 whole entry): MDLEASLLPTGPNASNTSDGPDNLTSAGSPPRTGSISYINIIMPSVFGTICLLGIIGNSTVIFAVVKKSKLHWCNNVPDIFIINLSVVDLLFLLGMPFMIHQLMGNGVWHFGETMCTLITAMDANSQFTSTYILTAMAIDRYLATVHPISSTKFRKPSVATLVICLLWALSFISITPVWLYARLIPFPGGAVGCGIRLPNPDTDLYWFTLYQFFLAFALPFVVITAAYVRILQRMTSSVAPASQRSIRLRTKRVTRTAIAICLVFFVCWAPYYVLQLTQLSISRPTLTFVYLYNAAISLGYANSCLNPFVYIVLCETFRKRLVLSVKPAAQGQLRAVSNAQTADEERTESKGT
Method in brief: as §1

| SMILES | A9 radioligand binding inhibition [1] | A5 radioligand binding inhibition [2] | A11 radioligand binding inhibition [3] | A1 radioligand binding inhibition [4] | A8 radioligand binding inhibition [5] | A7 radioligand binding inhibition [6] | A10 radioligand binding inhibition [7] | A4 radioligand binding inhibition [8] | A2 radioligand binding inhibition [9] | A3 radioligand binding inhibition [10] | A6 radioligand binding inhibition [11] | A9 radioligand binding, percentage inhibition ([1]; [125I]-PYY) | A5 radioligand binding, percentage inhibition ([2]; [125I]-NDP-αMSH) | A11 radioligand binding, percentage inhibition ([3]; [125I]-Urotensin II) | A1 radioligand binding, percentage inhibition ([4]; [3H]-Bremazocine) | A8 radioligand binding, percentage inhibition ([5]; [125I]-Substance P) | A7 radioligand binding, percentage inhibition ([6]; [3H]-Naloxone) | A10 radioligand binding, percentage inhibition ([7]; [125I]-Nociceptin) | A4 radioligand binding, percentage inhibition ([8]; [125I]-NDP-αMSH) | A2 radioligand binding, percentage inhibition ([9]; [3H]-Diprenorphine) | other results |
| --- | --- | --- | --- | --- | --- | --- | --- | --- | --- | --- | --- | --- | --- | --- | --- | --- | --- | --- | --- | --- | --- |
| COC[C@H]1OC(OCc2ccc3ccccc3c2)[C@H](NC(=O)CCCN)[C@@H](OCc2ccccc2)[C@@H]1O (stereo partly shown) [compound 20] | − (“−” indicates less than 50% inhibition at 10 μM) | − (“−” indicates less than 50% inhibition at 10 μM) | − (“−” indicates less than 50% inhibition at 10 μM) | − (“−” indicates less than 50% inhibition at 10 μM) | + (“+” indicates greater than 50% inhibition at 10 μM) | − (“−” indicates less than 50% inhibition at 10 μM) | − (“−” indicates less than 50% inhibition at 10 μM) | − (“−” indicates less than 50% inhibition at 10 μM) | − (“−” indicates less than 50% inhibition at 10 μM) | − (“−” indicates less than 50% inhibition at 10 μM) | − (“−” indicates less than 50% inhibition at 10 μM) |  |  |  |  |  |  |  |  |  |  |
| COC[C@H]1OC(OCCNC(=N)N)[C@H](NC(=O)c2ccccc2)[C@@H](OCc2ccc3ccccc3c2)[C@@H]1O (stereo partly shown) [compound 123] |  |  |  |  |  |  |  |  |  |  |  | − (“−” indicates less than 50% inhibition at 10 μM) | + (“+” indicates greater than 50% inhibition at 10 μM) | − (“−” indicates less than 50% inhibition at 10 μM) | − (“−” indicates less than 50% inhibition at 10 μM) | + (“+” indicates greater than 50% inhibition at 10 μM) | − (“−” indicates less than 50% inhibition at 10 μM) | − (“−” indicates less than 50% inhibition at 10 μM) | − (“−” indicates less than 50% inhibition at 10 μM) | − (“−” indicates less than 50% inhibition at 10 μM) | A3 radioligand binding, percentage inhibition ([10]; [125I]-NDP-αMSH): − (“−” indicates less than 50% inhibition at 10 μM); A6 radioligand binding, percentage inhibition ([11]; [125I]-S36057): − (“−” indicates less than 50% inhibition at 10 μM) |
| COC[C@H]1OC(OCc2ccc(Cl)cc2)[C@H](NC(=O)CCCNC(=N)N)[C@@H](OCc2ccccc2)[C@@H]1O (stereo partly shown) [compound 36] | − (“−” indicates less than 50% inhibition at 10 μM) | − (“−” indicates less than 50% inhibition at 10 μM) | − (“−” indicates less than 50% inhibition at 10 μM) | − (“−” indicates less than 50% inhibition at 10 μM) | + (“+” indicates greater than 50% inhibition at 10 μM) | + (“+” indicates greater than 50% inhibition at 10 μM) | − (“−” indicates less than 50% inhibition at 10 μM) | − (“−” indicates less than 50% inhibition at 10 μM) | − (“−” indicates less than 50% inhibition at 10 μM) | − (“−” indicates less than 50% inhibition at 10 μM) | − (“−” indicates less than 50% inhibition at 10 μM) |  |  |  |  |  |  |  |  |  |  |
| COC[C@H]1OC(OCCc2ccccc2)[C@H](NC(=O)CCCN)[C@@H](OCc2ccc3ccccc3c2)[C@@H]1O (single isomer, unassigned) [compound 345] |  |  |  |  |  |  |  |  |  |  |  |  |  |  |  |  |  |  |  |  | A9: inhibition of radioligand binding, human neuropeptide Y (NPY-Y1) ([1]; [125I]-PYY): − (“−” indicates less than 50% inhibition at 10 μM); A5: inhibition of radioligand binding, human melanocortin (MC5) ([2]; [125I]-NDP-αMSH, 10 µM): − (“−” indicates less than 50% inhibition at 10 μM); A11: inhibition of radioligand binding, mouse urotensin (mUR2) ([3]; [125I]-Urotensin II, 10 µM): − (“−” indicates less than 50% inhibition at 10 μM); A1: inhibition of radioligand binding, human δ-opioid (DOP) ([4]; [3H]-Bremazocine): − (“−” indicates less than 50% inhibition at 10 μM); A8: inhibition of radioligand binding, human neurokinin (NK1) ([5]; [125I]-Substance P): + (“+” indicates greater than 50% inhibition at 10 μM); A7: inhibition of radioligand binding, human μ-opioid (MOP) ([6]; [3H]-Naloxone, 10 µM): − (“−” indicates less than 50% inhibition at 10 μM); A10: inhibition of radioligand binding, human opioid (ORL1) ([7]; [125I]-Nociceptin, 10 µM): − (“−” indicates less than 50% inhibition at 10 μM); A4: inhibition of radioligand binding, human melanocortin (MC4) ([8]; [125I]-NDP-αMSH, 10 µM): − (“−” indicates less than 50% inhibition at 10 μM); A2: inhibition of radioligand binding, human κ-opioid (KOP) ([9]; [3H]-Diprenorphine, 10 µM): − (“−” indicates less than 50% inhibition at 10 μM); A3: inhibition of radioligand binding, human melanocortin (MC3) ([10]; [125I]-NDP-αMSH, 10 µM): − (“−” indicates less than 50% inhibition at 10 μM); A6: inhibition of radioligand binding, human melanin-concentrating hormone (MCH1) ([11]; [125I]-S36057, 10 µM): − (“−” indicates less than 50% inhibition at 10 μM) |
| CO[C@H]1[C@H](O)[C@@H](COCc2ccc(-c3ccccc3)cc2)OC(OCCc2ccccc2)[C@@H]1NC(=O)CCNC(=N)N (stereo partly shown) [compound 110] |  |  |  |  |  |  |  |  |  |  |  | − (“−” indicates less than 50% inhibition at 10 μM) | + (“+” indicates greater than 50% inhibition at 10 μM) | − (“−” indicates less than 50% inhibition at 10 μM) | − (“−” indicates less than 50% inhibition at 10 μM) | − (“−” indicates less than 50% inhibition at 10 μM) | − (“−” indicates less than 50% inhibition at 10 μM) | − (“−” indicates less than 50% inhibition at 10 μM) | + (“+” indicates greater than 50% inhibition at 10 μM) | − (“−” indicates less than 50% inhibition at 10 μM) | A3 radioligand binding, percentage inhibition ([10]; [125I]-NDP-αMSH): − (“−” indicates less than 50% inhibition at 10 μM); A6 radioligand binding, percentage inhibition ([11]; [125I]-S36057): − (“−” indicates less than 50% inhibition at 10 μM) |
